Test results published in paper PMC12670405, “Second-Generation AURKA-Targeting PROTACs: Structural Optimization toward in Vivo Degradation in Neuroblastoma” (Journal of Medicinal Chemistry, 2025).

Columns and labels:
PLK1 = assay: LC-MS/MS proteome profiling; assay type: cell-based, Homo sapiens; parameters: key to Significant (24h SK5527vs24h DMSO) FDR0 05: +: Statistical significance for differential regulation was set to a false discovery rate (FDR) of < 0.05 and |log2FC| = 2
Method: (§1) IMR-32 cells were seeded in T-25 flasks at a density of 1.7 million cells/flask and treated the next day with DMSO (negative control), SK5527 (500 nM) or MK-5108 (500 nM) for 3 or 24 h (data for MK-5108 not discussed in this manuscript). Cell pellets were harvested at the respective time points, lysed, and the concentration of the obtained protein lysates measured as previously described. Details on further sample preparation, LC–MS/MS, and data analysis can be found in the Supporting Information. The LC–MS/MS proteomics data have been deposited to the ProteomeXchange Consortium via the PRIDE partner repository with the data set identifier PXD061539.
(§2) Supplementary Methods 1 – LC-MS/MS proteomics
(§3) From each sample, 100 µg of protein was isolated, the volumes were equalized with water and SDS and TEAB were added to a final concentration of 5% and 50 mM, respectively. Proteins were reduced and alkylated by addition of 10 mM Tris(2-carboxyethyl)phosphine hydrochloride and 40 mM chloroacetamide and incubation for 30 minutes at 25°C in the dark. Phosphoric acid was added to a final concentration of 1.2%, and samples were subsequently diluted 7-fold with binding buffer containing 90% methanol in 100 mM TEAB, pH 7.55. The samples were loaded on the 96-well S-Trap™ plate (Protifi), placed on top of a deepwell plate, and centrifuged for 2 min at 1,500 x g at RT. After protein binding, the S-trap™ plate was washed three times by adding 200 µl binding buffer and centrifugation for 2 min at 1,500 x g at RT. A new deepwell receiver plate was placed below the 96-well S-Trap™ plate and 50 mM TEAB containing trypsin (1/100, w/w) was added for digestion overnight at 37°C.
(§4) Using centrifugation for 2 min at 1,500 x g, peptides were eluted in three steps, first with 80 µl 50 mM TEAB, then with 80 µl 0.2% formic acid (FA) in water and finally with 80 µl 0.2% FA in water/acetonitrile (ACN) (50/50, v/v). Eluted peptides were dried completely by vacuum centrifugation.
(§5) Peptides were re-dissolved in 20 µl loading solvent A (0.1% trifluoroacetic acid in water/acetonitrile (ACN) (99.5:0.5, v/v)) of which 2 µl of sample was injected for LC-MS/MS analysis on an Ultimate 3000 ProFlow nanoLC system in-line connected to a Orbitrap Exploris 240 mass spectrometer (Thermo) equipped with pneu-Nimbus dual ion source (Phoenix S&T). Trapping was performed at 20 μl/min for 2 min in loading solvent A on a PepMap™ Neo Trap column (Thermo scientific, 300 μm internal diameter (I.D.), 5 μm beads). The peptides were separated on a 250 mm Odyssey Ultimate, 1.7µm C18, 75 µm inner diameter (Ionopticks) kept at a constant temperature of 45°C. Peptides were eluted by a gradient reaching 26,4 % MS solvent B (0.1% FA in acetonitrile) after 80 min, 44% MS solvent B at 95 min, 56% MS solvent B at 100min followed by a 5-minutes wash at 56% MS solvent B and re-equilibration with MS solvent A (0.1% FA in water). The flow rate was set to 250 nl/min. The mass spectrometer was operated in data-independent mode, automatically switching between MS and MS/MS acquisition. Full-scan MS spectra ranging from 375-1500 m/z with a normalized target value of 300%, a maximum fill time of 25 ms and a resolution at of 60,000 were followed by 30 quadrupole isolations with a precursor isolation width of 10 m/z for HCD fragmentation at an NCE of 30% after filling the trap at a normalized target value of 2000% for maximum injection time of 45 ms. MS2 spectra were acquired at a resolution of 15,000 with a scan range of 200-1800 m/z in the Orbitrap analyser without multiplexing. The isolation intervals were set from 400 – 900 m/z with a width of 10 m/z using window placement optimization. The polydimethylcyclosiloxane background ion at 445.120028 Da was used for internal calibration (lock mass) and QCloud has been used to control instrument longitudinal performance during the project.
(§6) Analysis of the mass spectrometry data was performed in DiaNN (version 1.9). Precursor false discovery rate was […]
(§7) set at 1%. […]

ZNF660 = assay: LC-MS/MS proteome profiling; assay type: cell-based, Homo sapiens; parameters: key to Significant (24h SK5527vs24h DMSO) FDR0 05: +: Statistical significance for differential regulation was set to a false discovery rate (FDR) of < 0.05 and |log2FC| = 2
Method: as §1, §2, §3, §4, §5, §6, §7

CKAP2 = assay: LC-MS/MS proteome profiling; assay type: cell-based, Homo sapiens; parameters: key to Significant (24h SK5527vs24h DMSO) FDR0 05: +: Statistical significance for differential regulation was set to a false discovery rate (FDR) of < 0.05 and |log2FC| = 2
Method: as §1, §2, §3, §4, §5, §6, §7

AURKA = biological target: T1, AURKA (Homo sapiens, UniProt O14965); assay: KINOMEscan scanMAX; assay type: binding; parameters: purchased Eurofins Discovery; conditions: read-out: Percent Control
T1 sequence (O14965 1-403): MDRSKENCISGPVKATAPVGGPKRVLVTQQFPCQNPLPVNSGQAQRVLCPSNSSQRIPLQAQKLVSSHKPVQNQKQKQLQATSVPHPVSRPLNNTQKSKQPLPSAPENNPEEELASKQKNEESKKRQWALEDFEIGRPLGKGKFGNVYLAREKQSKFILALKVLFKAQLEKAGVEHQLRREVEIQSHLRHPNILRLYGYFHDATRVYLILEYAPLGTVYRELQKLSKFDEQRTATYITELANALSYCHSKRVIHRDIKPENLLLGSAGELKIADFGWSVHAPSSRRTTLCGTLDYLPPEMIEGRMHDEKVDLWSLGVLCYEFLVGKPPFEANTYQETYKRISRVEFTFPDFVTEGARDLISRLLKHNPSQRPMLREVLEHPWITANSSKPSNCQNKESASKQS
Method: The kinome-wide binding assay was performed by Eurofins Discovery using the scanMAX screening platform. More information can be found on the Eurofins Discovery Web site.

SMILES: Cc1cc(Nc2ccc(F)c(CC3(C(=O)N4CCC(F)(CN5CCN(c6ccc(N7CCC(=O)NC7=O)cn6)CC5)CC4)CCN(Cc4cccc(Cl)c4F)CC3)n2)n[nH]1 [SK5527]
- logFC (3h SK5527vs3h DMSO) (PLK1; IMR-32, 3h): 0.31
- Significant (24h SK5527vs24h DMSO) FDR0 05 (PLK1; IMR-32, 24h): +
- logFC (24h SK5527vs24h DMSO) (PLK1; IMR-32, 24h): 2.19
- logFC PLK1 (PLK1; SK5527 vs DMSO (24h)): 2.19
- logFC (3h SK5527vs3h DMSO) (ZNF660; IMR-32, 3h): -0.15
- Significant (24h SK5527vs24h DMSO) FDR0 05 (ZNF660; IMR-32, 24h): +
- logFC (24h SK5527vs24h DMSO) (ZNF660; IMR-32, 24h): -2.02
- logFC ZNF660 (ZNF660; SK5527 vs DMSO (24h)): -2.02
- logFC (3h SK5527vs3h DMSO) (CKAP2; IMR-32, 3h): 0.32
- Significant (24h SK5527vs24h DMSO) FDR0 05 (CKAP2; IMR-32, 24h): +
- logFC (24h SK5527vs24h DMSO) (CKAP2; IMR-32, 24h): 2.1
- logFC CKAP2 (CKAP2; SK5527 vs DMSO (24h)): 2.1
- remaining binding at 0.1 µM (AURKA; 100 nM): 0.8%
- remaining binding at 1 µM (AURKA; 1000 nM): 0%
